According to patent publication US10526327B2, “Histone demethylase inhibitors” (CELGENE QUANTICEL RESEARCH, INC., priority 2013, dated 2020):

How the values were obtained:
KDM5A/B = experiment: In vitro cell-based assay: immuno-blot quantification of tri-methyl H3K4 in ZR-75-1 breast cancer cells; settings: 72 hours, tri-methyl H3K4 level relative to GAPDH, percent of DMSO, read-out: Cellular IC50
Description: An assay to measure the degree of cellular inhibition of KDM5A and 5B was developed. This quantitative immuno-blotting assay measures the amount tri-methylated histone H3 at amino acid Lysine number 4, a specific substrate […] of the direct enzymatic activity of the histone demethylases KDM5A and KDM5B from extracts of the ZR-75-1 breast cancer cell line.
This assay is a fluorometric immunoassay for the quantification of tri-methyl H3K4 extracted from cells treated with test compound and is used as a measure of the cellular inhibition of KDM5A/B.
ZR-75-1 (PTEN null, ER+) breast cancer cells numbering 50,000 (ATCC) were seeded into each well of a 96-well tissue culture treated plate and then exposed to an 11 point dilution of test compound with final concentration ranges of test compound ranging from 1250 μM to 10 nM. Cells were left in the presence of test compound for 72 hours. Extracts were prepared containing all of the cellular histone material using detergent based lysis and sonication methods. These lysates were subsequently normalized for total protein content using a colorimetric bicinchonic acid assay (MicroBCA Pierce/Thermo Scientific). Normalized cell extracts were then subjected to typical immuno-blotting procedures using NuPage reagents (Life Technologies). Electrophoretically separated histones were then transferred and immobilized using polyvinylidene difluoride membrane (Immobilon-FL Millipore). The amount of tri-methylated lysine 4 of histone H3 was detected using an antibody specific to the tri-methylated state (Cell Signaling Technologies) and quantified on an infrared imager using a densitometry software package (Odyssey CLx, Image Studio, Li-Cor). This background subtracted densitometry value was reported as a ration of the GAPDH amount for that sample and then calculated as a percent of the DMSO treated sample. The software package XL-fit (IDBS) was then used to calculate a relative IC50 value for the dilution series of a given test compound according to the equation: fit=(D+((Vmax*(x^n))/((x^n)+(Km^n)))).

JMJD2C = target: T1, JMJD2C (Homo sapiens, UniProt Q9H3R0); experiment: JMJD2C in vitro enzyme inhibition assay (TR-FRET); type: biochemical
T1 construct: purchased BPS Bioscience 50105
T1 sequence (Q9H3R0 2-372): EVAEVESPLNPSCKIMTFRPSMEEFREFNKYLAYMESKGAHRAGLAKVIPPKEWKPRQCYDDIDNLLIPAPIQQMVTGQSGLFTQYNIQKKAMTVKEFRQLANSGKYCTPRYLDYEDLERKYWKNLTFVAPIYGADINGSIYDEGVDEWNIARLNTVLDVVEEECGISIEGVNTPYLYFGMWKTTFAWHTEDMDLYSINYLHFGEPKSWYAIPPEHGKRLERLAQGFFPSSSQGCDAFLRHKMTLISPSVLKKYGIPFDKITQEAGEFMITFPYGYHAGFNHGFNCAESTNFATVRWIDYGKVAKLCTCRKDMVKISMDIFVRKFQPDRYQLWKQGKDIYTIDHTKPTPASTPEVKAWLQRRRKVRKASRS
Outline: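 IC50 came from 665/615 TR-FRET ratios (Eu-anti-H3K9me2 antibody, streptavidin-APC, EDTA quench) over 11-point inhibitor series. Reactions ran 30 min at room temperature: 0.3 nM JMJD2C (AA 2-372, baculovirus), 300 nM biotinylated H3K9me3 peptide, 2 μM alpha-ketoglutarate, 2 μM Fe(II), ascorbate, pH 7.3.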

Row | SMILES | IC50 (KDM5A/B) | IC50 (JMJD2C)
1 | Cn1cnc(-c2nccc3c(O)nc(Oc4ccc(Cl)c(Cl)c4)nc23)c1 [Example 113, 2-(3,4-dichlorophenoxy)-8-(1-methyl-1H-imidazol-4-yl)pyrido[3,4-d]pyrimidin-4-ol] | 100 to 1000 nM | ≤ 100 nM
2 | O=S(=O)(C1CC1)N1CCCC(n2cc(Oc3nc(O)c4ccncc4n3)cn2)C1 (stereo in doubt) [Example 151, 2-({1-[(3S)-1-(cyclopropanesulfonyl)piperidin-3-yl]-1H-pyrazol-4-yl}oxy)pyrido[3,4-d]pyrimidin-4-ol] | 100 to 1000 nM | ≤ 100 nM
3 | O=C(C1CC1)N1CCC[C@H](n2cc(Oc3nc(O)c4ccncc4n3)cn2)C1 [Example 165, 2-({1-[(3S)-1-cyclopropanecarbonylpiperidin-3-yl]-1H-pyrazol-4-yl}oxy)pyrido[3,4-d]pyrimidin-4-ol] | 1000 to 10000 nM | ≤ 100 nM
4 | C[C@@H](c1ccccc1F)n1cc(Oc2nc(O)c3ccncc3n2)cn1 [Example 120, 2-({1-[(1s)-1-(2-fluorophenyl)ethyl]-1H-pyrazol-4-yl}oxy)pyrido[3,4-d]pyrimidin-4-ol] | 1000 to 10000 nM | ≤ 100 nM
5 | O=C(c1ccccc1)N1CCC[C@H](n2cc(Oc3nc(O)c4ccncc4n3)cn2)C1 [Example 167, 2-({1-[(3S)-1-benzoylpiperidin-3-yl]-1H-pyrazol-4-yl}oxy)pyrido[3,4-d]pyrimidin-4-ol] | 1000 to 10000 nM | ≤ 100 nM
6 | O=C(c1ccccc1)N1CCC[C@@H](n2cc(Oc3nc(O)c4ccncc4n3)cn2)C1 [Example 157, 2-({1-[(3R)-1-benzoylpiperidin-3-yl]-1H-pyrazol-4-yl}oxy)pyrido[3,4-d]pyrimidin-4-ol] | 1000 to 10000 nM | ≤ 100 nM
7 | CC(=O)N1CC[C@H](n2cc(Oc3nc(O)c4ccncc4n3)cn2)C1 [Example 139, 1-[(3S)-3-[4-({4-hydroxypyrido[3,4-d]pyrimidin-2-yl}oxy)-1H-pyrazol-1-yl]pyrrolidin-1-yl]ethan-1-one] | > 10000 nM | ≤ 100 nM
8 | CCS(=O)(=O)N1CC[C@@H](n2cc(Oc3nc(O)c4ccncc4n3)cn2)C1 [Example 126, 2-({1-[(3R)-1-(ethanesulfonyl)pyrrolidin-3-yl]-1H-pyrazol-4-yl}oxy)pyrido[3,4-d]pyrimidin-4-ol] | > 10000 nM | ≤ 100 nM
9 | CC(=O)N1CC[C@@H](n2cc(Oc3nc(O)c4ccncc4n3)cn2)C1 [Example 129, 1-[(3R)-3-[4-({4-hydroxypyrido[3,4-d]pyrimidin-2-yl}oxy)-1H-pyrazol-1-yl]pyrrolidin-1-yl]ethan-1-one] | > 10000 nM | ≤ 100 nM
10 | Oc1nc(Oc2cnn([C@H]3CCNC3)c2)nc2cnccc12 [Example 135, 2-({1-[(3S)-pyrrolidin-3-yl]-1H-pyrazol-4-yl}oxy)pyrido[3,4-d]pyrimidin-4-ol] | > 10000 nM | ≤ 100 nM
11 | CCC(c1ccccc1)n1cc(Oc2nc(O)c3ccncc3n2)cn1 (stereo not shown) [Example 115, 2-{[1-(1-phenylpropyl)-1H-pyrazol-4-yl]oxy}pyrido[3,4-d]pyrimidin-4-ol] | 1000 to 10000 nM | ≤ 100 nM
12 | Oc1nc(Oc2cnn(Cc3cccc(Cl)c3)c2)nc2cnccc12 [Example 122, 2-({1-[(3-chlorophenyl)methyl]-1H-pyrazol-4-yl}oxy)pyrido[3,4-d]pyrimidin-4-ol] | 1000 to 10000 nM | ≤ 100 nM
13 | O=S(=O)(c1ccccc1)N1CCC[C@H](n2cc(Oc3nc(O)c4ccncc4n3)cn2)C1 [Example 163, 2-({1-[(3S)-1-(benzenesulfonyl)piperidin-3-yl]-1H-pyrazol-4-yl}oxy)pyrido[3,4-d]pyrimidin-4-ol] | 100 to 1000 nM | ≤ 100 nM
14 | O=C(c1ccccc1)N1CC[C@H](n2cc(Oc3nc(O)c4ccncc4n3)cn2)C1 [Example 142, 2-({1-[(3S)-1-benzoylpyrrolidin-3-yl]-1H-pyrazol-4-yl}oxy)pyrido[3,4-d]pyrimidin-4-ol] | > 10000 nM | ≤ 100 nM
15 | Oc1nc(Oc2cnn([C@@H]3CCCN(Cc4ccccc4)C3)c2)nc2cnccc12 [Example 158, 2-({1-[(3R)-1-benzylpiperidin-3-yl]-1H-pyrazol-4-yl}oxy)pyrido[3,4-d]pyrimidin-4-ol] | 100 to 1000 nM | ≤ 100 nM
16 | O=C(CO)N1CC[C@H](n2cc(Oc3nc(O)c4ccncc4n3)cn2)C1 [Example 155, 2-hydroxy-1-[(3S)-3-[4-({4-hydroxypyrido[3,4-d]pyrimidin-2-yl}oxy)-1H-pyrazol-1-yl]pyrrolidin-1-yl]ethan-1-one] | 1000 to 10000 nM | ≤ 100 nM
17 | C[C@H](c1ccccc1F)n1cc(Oc2nc(O)c3ccncc3n2)cn1 [Example 119, 2-({1-[(1R)-1-(2-fluorophenyl)ethyl]-1H-pyrazol-4-yl}oxy)pyrido[3,4-d]pyrimidin-4-ol] | 100 to 1000 nM | ≤ 100 nM
18 | Oc1nc(Oc2cnn([C@@H]3CCN(Cc4ccccc4)C3)c2)nc2cnccc12 [Example 133, 2-({1-[(3R)-1-benzylpyrrolidin-3-yl]-1H-pyrazol-4-yl}oxy)pyrido[3,4-d]pyrimidin-4-ol] | 1000 to 10000 nM | ≤ 100 nM
19 | CC(=O)N1CCC[C@@H](n2cc(Oc3nc(O)c4ccncc4n3)cn2)C1 [Example 153, 1-[(3R)-3-[4-({4-hydroxypyrido[3,4-d]pyrimidin-2-yl}oxy)-1H-pyrazol-1-yl]piperidin-1-yl]ethan-1-one] | 1000 to 10000 nM | ≤ 100 nM
20 | N#CCC(=O)N1CC[C@H](n2cc(Oc3nc(O)c4ccncc4n3)cn2)C1 [Example 140, 3-[(3S)-3-[4-({4-hydroxypyrido[3,4-d]pyrimidin-2-yl}oxy)-1H-pyrazol-1-yl]pyrrolidin-1-yl]-3-oxopropanenitrile] | > 10000 nM | ≤ 100 nM
21 | Oc1nc(Oc2cnn([C@@H]3CCCN(c4ccc(F)cc4)C3)c2)nc2cnccc12 [Example 159, 2-({1-[(3R)-1-(4-fluorophenyl)piperidin-3-yl]-1H-pyrazol-4-yl}oxy)pyrido[3,4-d]pyrimidin-4-ol] | 1000 to 10000 nM | ≤ 100 nM
22 | Oc1nc(Oc2cnn([C@H]3CCCN(Cc4ccccc4)C3)c2)nc2cnccc12 [Example 168, 2-({1-[(3S)-1-benzylpiperidin-3-yl]-1H-pyrazol-4-yl}oxy)pyrido[3,4-d]pyrimidin-4-ol] | 1000 to 10000 nM | ≤ 100 nM
23 | O=S(=O)(C1CC1)N1CC[C@@H](n2cc(Oc3nc(O)c4ccncc4n3)cn2)C1 [Example 127, 2-({1-[(3R)-1-(cyclopropanesulfonyl)pyrrolidin-3-yl]-1H-pyrazol-4-yl}oxy)pyrido[3,4-d]pyrimidin-4-ol] | 1000 to 10000 nM | ≤ 100 nM
